Tests used:
Albifimbria verrucaria = assay: The compound was evaluated for activity against Myrothecium verrucaria; type: functional
Aspergillus niger = assay: The compound was evaluated for activity against Aspergillus niger; type: functional
Trichophyton benhamiae = assay: The compound was evaluated for activity against Trichophyton mentagrophytes; type: functional, Arthroderma benhamiae
[1] = -Log C was determined by performing the electroshock minimum test; type: ADME; design: unit not given here
[2] = -Log C was determined by performing the incl screen test; type: ADME; design: unit not given here
[3] = -Log C was determined by performing the foot shock test; type: ADME; design: unit not given here
[4] = -Log C was determined by performing the pentylenetetrazole test; type: ADME; design: unit not given here
[5] = -Log C was determined by performing the maximum electroshock test; type: ADME; design: unit not given here

Row | SMILES | -Log C (Albifimbria verrucaria) [mM l-1] | -Log C (Aspergillus niger) [mM l-1] | -Log C (Trichophyton benhamiae) [mM l-1] | -Log C [1] | -Log C [2] | -Log C [3] | -Log C [4] | -Log C [5]
1 | Oc1c(F)ccc2cccnc12 | 1.75 | 1.32 | 1.92 |  |  |  |  | 
2 | Cc1ccccc1C1=NCC(=O)Nc2ccc(Cl)cc21 |  |  |  | 0.19 | 0.28 | 0.45 | 1.57 | 1.13
3 | CCN1C(=O)CN=C(c2ccccc2)c2cc(Cl)ccc21 |  |  |  | 0.3 | 0.6 | 1.17 | 1.87 | 1.56
4 | CN(C)c1ccc2c(c1)C(c1ccccc1)=NCC(=O)N2 |  |  |  | 0.38 | 0.25 | 0.45 | 0.82 | 0.12
5 | O=C1CN=C(c2ccccc2)c2cc(C(F)(F)F)ccc2N1 [RO-052904] |  |  |  | 1.16 | 1.48 | 1.48 | 2.48 | 1.78
